Like-named read-outs stand apart in the source and are kept apart here. Marks after values point to notes of the source that are not given here.
Columns and labels:
[1] = reported literature data, cited from earlier work
Fluid solvent properties = conditions: for Viscosity: 20° C.
Source text: One of ordinary skill in the art can readily determine the flash point of a fluid or blend (e.g., ASTM D92-78).
The evaporation rate should be suitable for the intended purpose. […] The fluid selected preferably will have a similar evaporation rate to the disadvantaged fluid being replaced, particularly in the case where a fluid blend is used and an acceptable evaporation profile is desired. It is convenient for the fluid selected to have an evaporation rate less than 12 times the evaporation rate of n-butyl acetate. Evaporation rates may also be given relative to n-butyl acetate at 1.0 (ASTM D3539-87). Ranges of evaporation rates important for different applications are 5-3, 3-2, 2-1, 1.0-0.3, 0.3-0.1, and <0.1, relative to n-butyl acetate at 1.0. The present invention is related to fluids and fluid blends that at least partially evaporate into the atmosphere during or after their application.

[2] = Stability to acid catalyst (pTSA) in acrylic solvent system, followed by gas chromatography; assay type: physicochemical; conditions: 0.5 wt % pTSA, 50° C.; for Wt. % of Solvent At One Week Decomposition Period / Wt. % of Solvent At Three Week Decomposition Period: nitrogen atmosphere, start = 100
Method: Acrylic solvent systems were prepared to test the stability of dimethyl carbonate to acid catalysts, which are commonly present in coating compositions. The formulations contained 29.9 wt % DMC, 28.7 wt % pentyl acetate, 20.2 wt % n-butyl acetate, 16.1 wt % n-butyl alcohol, 3.6 wt % methyl ethyl ketone, 1.5 wt % isopropyl alcohol. 2 wt % toluene as an internal standard. The latter materials were purchased from Aldrich Chemical Co.
Para toluene sulfonic acid (PTSA) was added to the above formulation (again, pTSA was purchased from Aldrich Chemical Co.), in the amount of 0.5 wt %. The solutions were sealed and placed in an oven at 50° C. under a nitrogen atmosphere. Samples were withdrawn at intervals for testing. The content of dimethyl carbonate was monitored over time by gas chromatographic analysis using an HP 5890 gas chromatograph. In a parallel experiment an equal amount of tert. Butyl acetate was used instead of DMC. The results are shown below in Table 8 (all percentages are by weight).

Source text for in vivo: One way to measure the toxic effects of a chemical is to measure the dose-effect relationship; the dose is usually measured in mg of chemical per kg of body mass. This is typically done experimentally by administering the chemical to mice or rats at several doses in the lethal range and plotting the logarithm of the dose versus the percentage of the population killed by the chemical. The dose lethal to 50% of the test population is called the median lethal dose (LD50) and is typically used as a guide for the toxicity of a chemical. […] EU (European Union) uses a cutoff of >2,000 mg/kg.

| SMILES | Flash Point [1] | Boiling Temperature (Fluid solvent properties) [°C] | Evaporation Ratio to Butyl Acetate (Fluid solvent properties) | Specific Gravity (Fluid solvent properties) | Surface Tension (Fluid solvent properties) [dyn/cm] | Viscosity (Fluid solvent properties) [cps] | LD50 (in vivo) [mg/kg] | Wt. % of Solvent At One Week Decomposition Period [2] [wt. %] | Wt. % of Solvent At Three Week Decomposition Period [2] [wt. %] | also measured |
| --- | --- | --- | --- | --- | --- | --- | --- | --- | --- | --- |
| COC(C)=O [methyl acetate] | ~−12 °C | – | – | – | – | – | – | – | – | Flash Point ([1]; listed as Methyl acetate): about −12 °C |
| COC(=O)OC [DMC, dimethyl carbonate] | +19 to +32* ° C. | 90 | 3.2 | 1.065 | 29 | 0.60 | 13000 | 97.8 | 95.4 | Stability to acid catalysts (in words) [2]: more stable to acid catalysts than is t-butyl acetate |
| CCCCOC(C)=O [Butyl Acetate] | 27 °C | – | – | – | – | – | – | – | – | – |
| CC(C)=O [Acetone] | −20* ° C. | 56 | 18 | 0.792 | 22.3 | 0.33 | 5800 | – | – | Hansen Solubility Parameter, H-Bouding (Fluid solvent properties): 3.4; Hansen Solubility Parameter, Nonpolar (Fluid solvent properties): 7.6; Hansen Solubility Parameter, Polar (Fluid solvent properties): 5.1; Hansen Solubility Parameter, Total (Fluid solvent properties): 9.2 |
| CC(=O)OC(C)(C)C [t-butyl acetate] | – | – | – | – | – | – | – | 54.4 | 17.2 | – |
| COC(=O)C(C)(C)C [MP, methyl pivalate] | – | 99 | 2.2 | 0.873 | 23.8 | 0.74 | – | – | – | Flash Point (Fluid solvent properties): 27.2 °C |
